In brackets after ≈: the same amount, converted by molar mass.
Key:
P. aeruginosa = test: FIC checkerboard assay; format: cell-based; conditions: during FIC testing
B. cepacia = test: FIC checkerboard assay; format: cell-based; conditions: during FIC testing
Escherichia coli = test: Broth microdilution MIC (Example 12)
Klebsiella pneumoniae = test: Broth microdilution MIC (Example 12)
Pseudomonas aeruginosa = test: Broth microdilution MIC (Example 12)
Acinetobacter baumannii = test: Broth microdilution MIC (Example 12)
[1] = test system: Pseudomonas aeruginosa strain PA01; test: Bacterial killing curves with and without CF patient sputum

## C[C@@H](O)[C@H]1C(=O)N2C(C(=O)O)=C(S[C@@H]3CN[C@H](C(=O)N(C)C)C3)[C@H](C)[C@H]12 [MEM]
P. aeruginosa; P. aeruginosa isolate 103 (ATCC 25922), each agent tested alone, one replicate, for QC
  MIC: 1 µg/mL
P. aeruginosa; P. aeruginosa isolate 6322 (MEM-R, TOB-R, AMK-R, CIP-R, AZT-R)
  MIC: 16 µg/mL
P. aeruginosa; P. aeruginosa isolate 6977 (MEM-I, TOB-R, CIP-R, AZT-I)
  MIC: 8 µg/mL
P. aeruginosa; P. aeruginosa isolate 7745 (MEM-R, CIP-R, AZT-R)
  MIC: 16 µg/mL
P. aeruginosa; P. aeruginosa isolate 8798 (MEM-R, TOB-R, AMK-R, CIP-R, AZT-R, COL-R)
  MIC: 32 µg/mL
P. aeruginosa; P. aeruginosa isolate 9108 (CIP-R, AZT-I)
  MIC: 1 µg/mL
B. cepacia; B. cepacia isolate 0546
  MIC: 4 µg/mL
B. cepacia; B. cepacia isolate 1793
  MIC: 4 µg/mL
Escherichia coli; E. coli ATCC 35218, ESBL
  MIC: ≤0.008 µg/mL
Escherichia coli; E. coli ATCC BAA-2471, NDM
  MIC: >8 µg/mL
Escherichia coli; E. coli CDC 114, ESBL/KPC
  MIC: 2 µg/mL (≈ 5.22 µM)
Escherichia coli; E. coli CDC 118, ESBL/NDM
  MIC: 0.06 µg/mL (≈ 0.156 µM)
Escherichia coli; E. coli CDC 435, NDM
  MIC: >8 µg/mL
Escherichia coli; E. coli CDC 451, KPC
  MIC: 1 µg/mL (≈ 2.61 µM)
Escherichia coli; E. coli CDC 503, ESBL/NDM
  MIC: 8 µg/mL (≈ 20.9 µM)
Escherichia coli; E. coli MMX 5745, KPC
  MIC: 2 µg/mL (≈ 5.22 µM)
Escherichia coli; E. coli MMX 5755, ESBL
  MIC: 0.015 µg/mL (≈ 0.0391 µM)
Escherichia coli; E. coli MMX 5756, ESBL
  MIC: ≤0.008 µg/mL
Escherichia coli; E. coli MMX 5758, ESBL
  MIC: ≤0.008 µg/mL
Klebsiella pneumoniae; K. pneumoniae ATCC BAA-1705, ESBL/KPC
  MIC: 8 µg/mL (≈ 20.9 µM)
Klebsiella pneumoniae; K. pneumoniae CDC 112, KPC
  MIC: >8 µg/mL
Klebsiella pneumoniae; K. pneumoniae CDC 113, ESBL/KPC
  MIC: >8 µg/mL
Klebsiella pneumoniae; K. pneumoniae CDC 115, ESBL/KPC
  MIC: >8 µg/mL
Klebsiella pneumoniae; K. pneumoniae CDC 120, ESBL/KPC
  MIC: >8 µg/mL
Klebsiella pneumoniae; K. pneumoniae CDC 126, ESBL/KPC
  MIC: 4 µg/mL (≈ 10.4 µM)
Klebsiella pneumoniae; K. pneumoniae CDC 129, ESBL/KPC
  MIC: 8 µg/mL (≈ 20.9 µM)
Klebsiella pneumoniae; K. pneumoniae CDC 135, ESBL/VIM
  MIC: 1 µg/mL (≈ 2.61 µM)
Klebsiella pneumoniae; K. pneumoniae CDC 138, ESBL/NDM
  MIC: >8 µg/mL
Klebsiella pneumoniae; K. pneumoniae CDC 158, ESBL/NDM/OXA
  MIC: >8 µg/mL
Klebsiella pneumoniae; K. pneumoniae MMX 9029, ESBL
  MIC: 0.015 µg/mL (≈ 0.0391 µM)
Pseudomonas aeruginosa; P. aeruginosa CDC 230, VIM/OXA
  MIC: >8 µg/mL
Pseudomonas aeruginosa; P. aeruginosa CDC 231, KPC/OXA
  MIC: >8 µg/mL
Pseudomonas aeruginosa; P. aeruginosa CDC 241, IMP/OXA
  MIC: >8 µg/mL
Pseudomonas aeruginosa; P. aeruginosa CDC 246, NDM/OXA
  MIC: >8 µg/mL
Pseudomonas aeruginosa; P. aeruginosa CDC 250, NDM/OXA
  MIC: >8 µg/mL
Pseudomonas aeruginosa; P. aeruginosa CDC 356, KPC
  MIC: >8 µg/mL
Pseudomonas aeruginosa; P. aeruginosa CDC 439, IMP
  MIC: >8 µg/mL
Pseudomonas aeruginosa; P. aeruginosa CDC 444, VIM
  MIC: >8 µg/mL
Pseudomonas aeruginosa; P. aeruginosa CDC 457, VIM
  MIC: >8 µg/mL
Pseudomonas aeruginosa; P. aeruginosa CDC 516, KPC/AmpC
  MIC: >8 µg/mL
Pseudomonas aeruginosa; P. aeruginosa CDC 518, KPC/AmpC
  MIC: >8 µg/mL
Acinetobacter baumannii; A. baumannii CDC 273, ESBL/OXA
  MIC: >8 µg/mL
Acinetobacter baumannii; A. baumannii CDC 274, ESBL/OXA
  MIC: >8 µg/mL
Acinetobacter baumannii; A. baumannii CDC 275, ESBL/OXA
  MIC: >8 µg/mL
Acinetobacter baumannii; A. baumannii CDC 277, ESBL/OXA
  MIC: >8 µg/mL
Acinetobacter baumannii; A. baumannii CDC 284, ESBL/OXA
  MIC: >8 µg/mL
Acinetobacter baumannii; A. baumannii CDC 307, OXA
  MIC: 8 µg/mL (≈ 20.9 µM)
Acinetobacter baumannii; A. baumannii CDC 308, ESBL/OXA
  MIC: 8 µg/mL (≈ 20.9 µM)
Acinetobacter baumannii; A. baumannii CDC 311, OXA
  MIC: >8 µg/mL
Acinetobacter baumannii; A. baumannii CDC 312, OXA
  MIC: 4 µg/mL (≈ 10.4 µM)
Acinetobacter baumannii; A. baumannii CDC 313, ESBL/OXA
  MIC: >8 µg/mL
Acinetobacter baumannii; A. baumannii NCTC 13304, OXA
  MIC: >8 µg/mL

## C1C[S][Bi]([S]CC[S][Bi]2[S]CC[S]2)[S]1 [BisEDT, bismuth-1,2-ethanedithiol]
[1]; 0.1 μg/mL
  bactericidal activity against PA01: not bactericidal
[1]; 10% CF patient sputum
  effect of CF patient sputum on bactericidal activity: partially inhibited
